Measured values from US11866430B2, “Naphthyridinone compounds useful as T cell activators” (priority 2018, dated 2024).
Read-outs that look alike come from different tables or passages of the source.

Key:
human DGKζ = human DGKζ (Homo sapiens (Human), UniProt Q13574); experiment: DGKζ LIPGLO assay (extruded liposome substrate); format: biochemical
How it was run: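 Recombinant DGKζ (Sf9-expressed, Ni/SEC/SP-purified) preincubated 10 min with extruded 100 nm PC/DAG/PS liposomes in 50 mM MOPS pH 7.5, 100 mM NaCl, 10 mM MgCl2, 1 μM CaCl2, 1 mM DTT. Started with 300 uM ATP solution (stock, pre-addition); 1 hr reaction. ADP-Glo luminescence; IC50 from 11 concentrations.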

[1] = tested on: Jurkat AP1-luciferase Reporter; experiment: DGK AP1-Reporter Assay; format: cell-based
How it was run: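 Jurkat cells carrying a lentiviral AP1-luciferase reporter received 30 nl compound per well for 20 min at 37 °C and 5% CO2. They were then stimulated for 6 h with anti-CD3 solution at 0.4 μg/mL; reference wells received 4 μg/mL and unstimulated wells medium only. Readout was Steady-Glo luciferase luminescence (RLU).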

[2] = DGKζ LIPGLO IC50, extruded liposome substrate
[3] = Homo sapiens, Jurkat, read-out: API-Luciferase Reporter IC50, Table 3
[4] = extruded liposome substrate, read-out: DGKζ LIPGLO IC50
[5] = Homo sapiens, Jurkat, read-out: DGKAP1 Lucif Reporter IC50, Table 4
[6] = read-out: DGKAP1 Lucif Reporter IC50, Table 4

Chain of human DGKζ (Q13574 other isoform, or with tags, fused parts or gaps): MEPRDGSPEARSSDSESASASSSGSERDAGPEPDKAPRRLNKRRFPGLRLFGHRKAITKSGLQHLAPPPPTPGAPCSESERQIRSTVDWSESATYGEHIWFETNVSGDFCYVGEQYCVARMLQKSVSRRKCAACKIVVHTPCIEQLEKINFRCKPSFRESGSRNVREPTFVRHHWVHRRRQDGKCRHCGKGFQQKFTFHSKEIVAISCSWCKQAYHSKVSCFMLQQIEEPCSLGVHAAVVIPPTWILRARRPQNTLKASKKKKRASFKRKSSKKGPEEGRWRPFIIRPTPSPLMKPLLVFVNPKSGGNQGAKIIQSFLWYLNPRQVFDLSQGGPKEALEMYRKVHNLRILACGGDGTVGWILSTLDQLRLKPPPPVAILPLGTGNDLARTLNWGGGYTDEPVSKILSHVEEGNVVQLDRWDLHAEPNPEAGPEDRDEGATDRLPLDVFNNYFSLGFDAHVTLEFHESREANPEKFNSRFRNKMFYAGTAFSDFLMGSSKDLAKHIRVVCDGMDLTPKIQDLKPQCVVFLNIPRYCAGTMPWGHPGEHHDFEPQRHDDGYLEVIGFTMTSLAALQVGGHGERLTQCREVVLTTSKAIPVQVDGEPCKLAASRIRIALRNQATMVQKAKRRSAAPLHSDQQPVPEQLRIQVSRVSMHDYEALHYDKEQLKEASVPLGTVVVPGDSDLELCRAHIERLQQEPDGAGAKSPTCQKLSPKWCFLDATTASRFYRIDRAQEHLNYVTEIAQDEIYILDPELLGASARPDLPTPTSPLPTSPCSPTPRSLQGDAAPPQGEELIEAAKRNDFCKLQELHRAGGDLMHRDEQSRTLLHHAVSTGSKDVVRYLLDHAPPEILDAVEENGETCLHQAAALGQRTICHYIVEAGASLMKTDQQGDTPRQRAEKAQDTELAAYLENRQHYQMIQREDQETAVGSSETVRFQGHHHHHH

Compound | IC50 [1, 3] [µM] | IC50 (human DGKζ; [4]) [µM] | IC50 [1, 5] [µM] | further results
C#CCn1c(=O)c([N+](=O)[O-])c(N2CCN(C(C)c3ccc(F)cc3)CC2)c2nc(C#N)ccc21 (single isomer, unassigned) [Example 136, 8-(4-(1-(4-fluorophenyl)ethyl)piperazin-1-yl)-7-nitro-6-oxo-5-(prop-2-yn-1-yl)-5,6-dihydro-1,5-naphthyridine-2-carbonitrile] | 0.23 | – | – | IC50 (human DGKζ; [2]): 0.21 µM
C#CCn1c(=O)c([N+](=O)[O-])c(N2CCN(C(C)c3ccc(F)cc3)CC2)c2nc(C#N)ccc21 (single isomer, unassigned) [Example 137, 8-(4-(1-(4-fluorophenyl)ethyl)piperazin-1-yl)-7-nitro-6-oxo-5-(prop-2-yn-1-yl)-5,6-dihydro-1,5-naphthyridine-2-carbonitrile] | – | – | – | IC50 (human DGKζ; [2]): 0.85 µM; IC50 ([1]; read-out: API-Luciferase Reporter IC50, Table 3): 0.19 µM
C#CCn1c(=O)c([N+](=O)[O-])c(N2CCN(C(CC)c3ccc(F)cc3)CC2)c2nc(C#N)ccc21 (single isomer, unassigned) [Example 141, 8-{4-[1-(4-fluorophenyl)propyl]piperazin-1-yl}-7-nitro-6-oxo-5-(prop-2-yn-1-yl)-5,6-dihydro-1,5-naphthyridine-2-carbonitrile] | 0.24 | 1.4 | – | –
C#CCn1c(=O)c([N+](=O)[O-])c(N2CCN(C(c3ccc(F)cc3)C3CC3)CC2)c2nc(C#N)ccc21 (single isomer, unassigned) [Example 143, 8-(4-(cyclopropyl(4-fluorophenyl)methyl)piperazin-1-yl)-7-nitro-6-oxo-5-(prop-2-yn-1-yl)-5,6-dihydro-1,5-naphthyridine-2-carbonitrile] | – | 1.1 | 1.28 | –
CC(C)C(c1ccc(F)cc1)N1CCN(c2c(C#N)c(=O)n(C)c3ccc(Cl)nc23)CC1 (single isomer, unassigned) [Example 315, 6-chloro-4-{4-[1-(4-fluorophenyl)-2-methylpropyl]piperazin-1-yl}-methyl-2-oxo-1,2-dihydro-1,5-naphthyridine-3-carbonitrile] | – | 1.6 | 10 | –
Cn1c(=O)c(C#N)c(N2CCN(C(CC(C)(C)C)c3ccc(F)cc3)CC2)c2nc(Cl)ccc21 (single isomer, unassigned) [Example 377, 6-chloro-4-{4-[1-(4-fluorophenyl)-3,3-dimethylbutyl]piperazin-1-yl}-1-methyl-2-oxo-1,2-dihydro-1,5-naphthyridine-3-carbonitrile] | – | 130 | 10 | –
Cn1c(=O)c(C#N)c(N2CCN(C(CC(C)(C)C)c3ccc(F)cc3)CC2)c2nc(Cl)ccc21 (single isomer, unassigned) [Example 378, 6-chloro-4-{4-[1-(4-fluorophenyl)-3,3-dimethylbutyl]piperazin-1-yl}-1-methyl-2-oxo-1,2-dihydro-1,5-naphthyridine-3-carbonitrile] | – | > 240 | – | IC50 [1, 6]: 10 µM
Cn1c(=O)c(C#N)c(N2CCN(C(c3ccc(F)cc3)C3CCC3)CC2)c2nc(Cl)ccc21 (single isomer, unassigned) [Example 382, 6-chloro-4-{4-[cyclobutyl(4-fluorophenyl)methyl]piperazin-1-yl}-1-methyl-2-oxo-1,2-dihydro-1,5-naphthyridine-3-carbonitrile] | – | > 240 | 10 | –
Cn1c(=O)c(C#N)c(N2CCN(C(c3ccc(F)cc3)C3CCC3)CC2)c2nc(Cl)ccc21 (single isomer, unassigned) [Example 383, 6-chloro-4-{4-[cyclobutyl(4-fluorophenyl)methyl]piperazin-1-yl}-1-methyl-2-oxo-1,2-dihydro-1,5-naphthyridine-3-carbonitrile] | – | > 2.4 | – | IC50 [1, 6]: 10 µM
CC(c1ccc(F)cc1)N1CCN(c2c(C#N)c(=O)n(C)c3ccc(Cl)nc23)CC1 (single isomer, unassigned) [Example 387, 6-chloro-4-{4-[1-(4-fluorophenyl)ethyl]piperazin-1-yl}-1-methyl-2-oxo-1,2-dihydro-1,5-naphthyridine-3-carbonitrile] | – | 1.6 | 3.33 | –
CC(c1ccc(F)cc1)N1CCN(c2c(C#N)c(=O)n(C)c3ccc(Cl)nc23)CC1 (single isomer, unassigned) [Example 388, 6-chloro-4-{4-[1-(4-fluorophenyl)ethyl]piperazin-1-yl}-1-methyl-2-oxo-1,2-dihydro-1,5-naphthyridine-3-carbonitrile] | – | 130 | – | IC50 [1, 6]: 3.33 µM
Cn1c(=O)c(C#N)c(N2CCN(C(c3ccc(F)cc3)c3ccccc3O)CC2)c2nc(C#N)ccc21 (centres unmarked) [Example 11, 8-{4-[(4-fluorophenyl)(2-hydroxyphenyl)methyl]piperazin-1-yl}-5-methyl-6-oxo-5,6-dihydro-1,5-naphthyridine-2,7-dicarbonitrile] | 0.08 | – | – | IC50 (human DGKζ; [2]): 1.8 µM
Cn1c(=O)c([N+](=O)[O-])c(N2CCN(CC(O)c3ccc(F)cc3)CC2)c2nc(C#N)ccc21 (centres unmarked) [Example 36, 8-{4-[2-(4-fluorophenyl)-2-hydroxyethyl]piperazin-1-yl}-5-methyl-7-nitro-6-oxo-5,6-dihydro-1,5-naphthyridine-2-carbonitrile] | 1.6 | 18 | – | –
CCCCn1c(=O)c([N+](=O)[O-])c(N2CCN(C(c3ccccc3)c3ccccc3)CC2)c2ncccc21 [Example 177, 4-(4-benzhydrylpiperazin-1-yl)-1-butyl-3-nitro-1,5-naphthyridin-2(1H)-one] | – | 9.7 | 10 | –
Cc1ccc2c(n1)c(N1CCN(C(C)c3ccc(F)cc3)CC1)c(Br)c(=O)n2C (centres unmarked) [Example 224, 3-bromo-4-(4-(1-(4-fluorophenyl)ethyl)piperazin-1-yl)-1,6-dimethyl-1,5-naphthyridin-2(1H)-one] | – | 20 | 10 | –
Cc1ccc(CN2CCN(c3c(C#N)c(=O)n(C)c4ccc(Br)nc34)CC2)c(O)c1 [Example 372, 6-bromo-4-{4-[(2-hydroxy-4-methylphenyl)methyl]piperazin-1-yl}-1-methyl-2-oxo-1,2-dihydro-1,5-naphthyridine-3-carbonitrile] | 0.14 | 8.8 | – | –
Cc1ccc(CN2CCN(c3c(C#N)c(=O)n(C)c4ccc(Cl)nc34)CC2)cc1 [Example 386, 6-chloro-1-methyl-4-{4-[(4-methylphenyl)methyl]piperazin-1-yl}-2-oxo-1,2-dihydro-1,5-naphthyridine-3-carbonitrile] | 0.05 | 6.7 | – | –
Cc1ccc2c(n1)c(N1CCN(Cc3cccc(Cl)c3O)CC1)c(C#N)c(=O)n2C [Example 389, 4-{4-[(3-chloro-2-hydroxyphenyl)methyl]piperazin-1-yl}-1,6-dimethyl-2-oxo-1,2-dihydro-1,5-naphthyridine-3-carbonitrile] | 0.65 | 9.4 | – | –
Cc1cccc(CN2CCN(c3c(C#N)c(=O)n(C)c4ccc(Cl)nc34)CC2)c1O [Example 391, 6-chloro-4-{4-[(2-hydroxy-3-methylphenyl)methyl]piperazin-1-yl}-1-methyl-2-oxo-1,2-dihydro-1,5-naphthyridine-3-carbonitrile] | 0.07 | 2.1 | – | –
Cn1c(=O)c([N+](=O)[O-])c(N2CCN(Cc3cccc4ccccc34)CC2)c2nc(C#N)ccc21 [Example 415, 5-methyl-8-{4-[(naphthalen-1-yl)methyl]piperazin-1-yl}-7-nitro-6-oxo-5,6-dihydro-1,5-naphthyridine-2-carbonitrile] | – | 0.66 | 0.42 | –
Cc1ccc(CN2CCN(c3c(C#N)c(=O)n(C)c4ccc(Cl)nc34)CC2)c(F)c1 [Example 423, 6-chloro-4-{4-[(2-fluoro-4-methylphenyl)methyl]piperazin-1-yl}-1-methyl-2-oxo-1,2-dihydro-1,5-naphthyridine-3-carbonitrile] | 1.88 | 33 | – | –
COc1cc(C#N)ccc1CN1CCN(c2c(C#N)c(=O)n(C)c3ccc(Cl)nc23)CC1 [Example 424, 6-chloro-4-{4-[(4-cyano-2-methoxyphenyl)methyl]piperazin-1-yl}-1-methyl-2-oxo-1,2-dihydro-1,5-naphthyridine-3-carbonitrile] | 10 | 27 | – | –
